What was measured:
IRAK4 protein = biological target: T1, IRAK4 protein (Homo sapiens, UniProt Q9NWZ3); assay: IRAK4 degradation activity in hPBMC cells (24 hours); assay type: cell-based; conditions: 100 nM, relative to vehicle control
T1 construct: endogenous in cells; host or cells: human peripheral blood mononuclear cells (hPBMC) from healthy volunteers
T1 sequence (Q9NWZ3 1-460): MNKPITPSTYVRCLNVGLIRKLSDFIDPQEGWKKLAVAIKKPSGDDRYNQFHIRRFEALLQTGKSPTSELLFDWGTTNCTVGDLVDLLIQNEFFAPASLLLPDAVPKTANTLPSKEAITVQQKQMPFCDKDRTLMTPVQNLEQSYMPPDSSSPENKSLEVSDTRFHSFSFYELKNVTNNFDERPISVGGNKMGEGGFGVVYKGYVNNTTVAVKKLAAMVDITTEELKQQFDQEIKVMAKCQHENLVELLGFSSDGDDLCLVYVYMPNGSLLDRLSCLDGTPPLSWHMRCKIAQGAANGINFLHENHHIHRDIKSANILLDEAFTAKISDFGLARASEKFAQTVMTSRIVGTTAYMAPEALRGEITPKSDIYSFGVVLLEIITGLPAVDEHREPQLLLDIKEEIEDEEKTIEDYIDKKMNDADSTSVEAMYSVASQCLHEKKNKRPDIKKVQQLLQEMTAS
Description: hPBMC cells are human peripheral blood mononuclear cells. Peripheral venous blood was taken from healthy volunteers, and hPBMCs were isolated using Ficoll density gradient centrifugation (Ficoll-Paque™ PLUS 1.077, GE, Cat. 17-1140-02). Culture conditions: RPMI-1640+10% FBS+1% penicillin-streptomycin solution. The cells were cultured in an incubator at 37° C. and 5% CO2. The cells were plated in a 24-well plate at 1×10^6 cells/well. After plating, compounds at different concentrations were added, and the cells were cultured in an incubator at 37° C. and 5% CO2 for 24 hours. After the culture was completed, the cells were collected, and RIPA lysis buffer (beyotime, Cat. P0013B) was added. The cells were lysed on ice for 20 minutes, and then centrifuged at 12000 rpm at 4° C. for 10 minutes. The protein sample of the supernatant was collected, the protein was quantified using a BCA kit (Beyotime, Cat. P0009), and then the protein was diluted to 1 mg/mL. The expression of IRAK4 (CST, Cat. 4363S) and the internal reference cofilin (CST, Cat. 5175S) were detected using a fully automated western blot quantitative analyzer (Proteinsimple). The expression level of IRAK4 relative to the internal reference was calculated using compass software. The remaining IRAK4 protein IRAK4% relative to the vehicle control group at different doses was calculated using formula (1), and the IRAK4 protein degradation relative to the vehicle control group at different doses was calculated using formula (2), where IRAK4administration was the expression level of IRAK4 in the administration groups at different doses, and IRAK4vehicle was the expression level of IRAK4 in the vehicle control group. An IRAK4 degradation-drug concentration curve was fit using Graphpad Prism 8 software, and the DC50 was calculated.

[1] = Pharmacokinetic test in mice; assay type: in vivo, ICR mice; conditions: male, ICR, mouse, plasma, po, 10 mg/kg, i.g. 10 mg/kg, read-out: AUC0-t
Description: Experimental animals: Male ICR mice, about 25 g, 6 mice/compound, purchased from Chengdu Ddossy Experimental Animals Co., Ltd.
Test design: On the day of the experiment, 6 ICR mice were randomly grouped according to their body weights. The animals were fasted with water available for 12 to 14 h one day before the administration, and were fed 4 h after the administration.
• Vehicle for intravenous administration: 5% DMA+5% Solutol+90% Saline; • Vehicle for intragastric administration: 5% DMSO+30% PEG400+65% (20% SBE-CD); (DMSO: dimethyl sulfoxide; DMA: dimethylacetamide; Solutol: polyethylene glycol-15-hydroxystearate; PEG400: polyethylene glycol 400; SBE-β-CD: sulfobutyl-β-cyclodextrin; Saline: physiological saline)
Before and after the administration, 0.15 mL of blood was taken from the orbit of the animals under isoflurane anesthesia and placed in an EDTAK2 centrifuge tube. The blood was centrifuged at 5000 rpm and 4° C. for 10 min to collect plasma. The blood collection time points for the intravenous administration group and intragastric administration group were 0 min, 5 min, 15 min, 30 min, 1 h, 2 h, 4 h, 7 h and 24 h. Before analysis and detection, all samples were stored at −60° C. The samples were analyzed quantitatively by LC-MS/MS.

[2] = biological target: T2, hERG potassium ion channel (Homo sapiens, UniProt Q12809); assay: Effect on hERG potassium ion channel (manual patch-clamp, CHO cells); assay type: cell-based; conditions: CHO cells stably expressing hERG, whole cell patch-clamp; read-out: IC50 for inhibitory effect on hERG potassium channel current
T2 construct: expressed in transfected cells; host or cells: CHO (Chinese hamster ovary) cells stably expressing hERG
T2 sequence (Q12809 whole entry): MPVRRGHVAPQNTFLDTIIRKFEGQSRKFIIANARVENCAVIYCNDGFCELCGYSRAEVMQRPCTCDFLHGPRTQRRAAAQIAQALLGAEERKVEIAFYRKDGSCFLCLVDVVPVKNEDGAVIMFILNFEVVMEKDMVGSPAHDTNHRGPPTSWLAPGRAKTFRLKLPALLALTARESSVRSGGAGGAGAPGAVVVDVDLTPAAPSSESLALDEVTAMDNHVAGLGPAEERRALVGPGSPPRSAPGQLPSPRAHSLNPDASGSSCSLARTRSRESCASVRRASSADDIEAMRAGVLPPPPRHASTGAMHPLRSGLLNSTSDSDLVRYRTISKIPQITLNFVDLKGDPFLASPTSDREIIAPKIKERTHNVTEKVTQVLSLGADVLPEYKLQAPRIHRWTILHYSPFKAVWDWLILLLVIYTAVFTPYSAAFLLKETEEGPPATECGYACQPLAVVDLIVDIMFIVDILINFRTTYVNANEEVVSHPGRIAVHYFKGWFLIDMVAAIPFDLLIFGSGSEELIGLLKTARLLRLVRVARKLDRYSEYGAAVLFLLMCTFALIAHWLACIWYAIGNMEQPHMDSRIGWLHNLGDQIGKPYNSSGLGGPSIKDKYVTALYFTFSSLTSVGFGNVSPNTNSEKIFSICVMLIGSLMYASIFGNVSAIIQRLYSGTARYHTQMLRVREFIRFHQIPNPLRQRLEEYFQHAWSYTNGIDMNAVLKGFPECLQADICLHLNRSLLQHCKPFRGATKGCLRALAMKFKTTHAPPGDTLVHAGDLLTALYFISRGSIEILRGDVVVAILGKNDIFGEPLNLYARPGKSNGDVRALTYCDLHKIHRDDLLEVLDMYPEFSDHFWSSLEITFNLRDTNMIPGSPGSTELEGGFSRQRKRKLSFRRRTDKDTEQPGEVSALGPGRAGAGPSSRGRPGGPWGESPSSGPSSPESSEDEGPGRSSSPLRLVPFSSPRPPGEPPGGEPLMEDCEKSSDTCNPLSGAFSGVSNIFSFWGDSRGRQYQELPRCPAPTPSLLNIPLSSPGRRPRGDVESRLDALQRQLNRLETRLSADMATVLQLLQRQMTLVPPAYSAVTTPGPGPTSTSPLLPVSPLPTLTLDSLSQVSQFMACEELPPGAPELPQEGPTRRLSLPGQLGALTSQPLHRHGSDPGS
Text: Experimental platform: electrophysiological manual patch-clamp system
Cell line: Chinese hamster ovary (CHO) cell line stably expressing hERG potassium ion channel
Experimental method: In CHO (Chinese Hamster Ovary) cells stably expressing hERG potassium channel, whole cell patch-clamp technique was used to record hERG potassium channel current at room temperature. The glass microelectrode was made of a glass electrode blank (BF150-86-10, Sutter) by a puller. The tip resistance after filling the liquid in the electrode was about 2-5 MQ. The glass microelectrode can be connected to the patch-clamp amplifier by inserting the glass microelectrode into an amplifier probe. The clamping voltage and data recording were controlled and recorded by the pClamp 10 software through a computer. The sampling frequency was 10 kHz, and the filtering frequency was 2 kHz. After the whole cell records were obtained, the cells were clamped at −80 mV, and the step voltage that induced the hERG potassium current (lhERG) was depolarized from −80 mV to +20 mV for 2 s, then repolarized to −50 mV, and returned to −80 mV after 1 s. This voltage stimulation was given every 10 s, and the administration process was started after the hERG potassium current was confirmed to be stable (at least 1 minute). The compound was administered for at least 1 minute at each test concentration, and at least 2 cells (n≥2) were tested at each concentration.
Data processing: Data analysis processing was carried out by using pClamp 10, GraphPad Prism 5 and Excel software. The inhibition degree of hERG potassium current (peak value of hERG tail current induced at −50 mV) at different compound concentrations was calculated by the following formula:
[formula] • where Inhibition % represents the percentage of inhibition of hERG potassium current by the compound, and l and lo represent the amplitude of hERG potassium current after and before the administration, respectively.
Compound IC50 was calculated using GraphPad Prism 5 software by fitting according to the following equation:
[formula] • where X represents the Log value of the tested concentration of the test sample, Y represents the inhibition percentage at the corresponding concentration, and Bottom and Top represent the minimum and maximum inhibition percentage, respectively.

- Remaining IRAK4 protein IRAK4% (IRAK4 protein): A (A ≤ 10%)
- AUC(0-t) [1]: 8750 ± 4650 ng·h/mL
Compound: Cn1nc(C2CCC(=O)NC2=O)c2cccc(C#CCO[C@H]3CCN(C[C@H]4CC[C@H](n5cc(NC(=O)c6cnn7ccc(N8C[C@H]9C[C@@H]8CO9)nc67)c(C(F)F)n5)CC4)C[C@H]3F)c21 (stereo partly drawn) [Compound 11]
- IC50 [2]: > 30 µM

Source: patent US20250084101A1, “COMPOUND FOR INHIBITING AND DEGRADING IRAK4, AND PHARMACEUTICAL COMPOSITION AND PHARMACEUTICAL APPLICATION THEREOF” (XIZANG HAISCO PHARMACEUTICAL CO., LTD., priority 2022, published 2025)
